Our source for the Km, k cat and k cat/Km values is ChEMBL document CHEMBL1133372, “Mechanistic studies on type I and type II dehydroquinase with (6R)- and (6S)-6-fluoro-3-dehydroquinic acids” (Bioorg Med Chem Lett, 2000).

Assay [1] has as its system Mycobacterium tuberculosis. The assay is described as follows: The compound was evaluated for its kinetic parameter (Km) against type 2 Dehydroquinase of Mycobacterium tuberculosis.
Assay [2] deals with Aspergillus nidulans. The assay is described as follows: The compound was evaluated for its kinetic parameter (Km) against type 2 Dehydroquinase of Aspergillus nidulans.
Assay [3] concerns Aspergillus nidulans. The assay is described as follows: Kcat value was evaluated against type 2 Dehydroquinase of Aspergillus nidulans.
Assay [4] has as its system Mycobacterium tuberculosis. Briefly: Kcat value was evaluated against type 2 Dehydroquinase of Mycobacterium tuberculosis.
In assay [5] the target is T1, 3-dehydroquinate dehydratase (Escherichia coli K-12) (UniProt P05194).
T1 sequence (whole entry): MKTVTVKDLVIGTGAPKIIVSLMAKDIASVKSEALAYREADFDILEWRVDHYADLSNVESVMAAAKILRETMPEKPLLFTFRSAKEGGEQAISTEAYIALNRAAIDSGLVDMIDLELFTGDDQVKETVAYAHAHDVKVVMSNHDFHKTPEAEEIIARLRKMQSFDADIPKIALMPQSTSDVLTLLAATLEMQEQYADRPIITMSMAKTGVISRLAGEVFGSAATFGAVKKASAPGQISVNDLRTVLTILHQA
The assay is described as follows: Kcat / Km value was evaluated against type 1 Dehydroquinase of Escherichia coli.

Assay [6] addresses T1, 3-dehydroquinate dehydratase (Escherichia coli K-12). The assay is described as follows: Kcat value was evaluated against type 1 Dehydroquinase of Escherichia coli.

Usually Km stands for the substrate concentration at which the rate is half of its maximum.

Regarding `O=C1CC(O)(C(=O)O)CC(O)C1O` (stereo unspecified), the results for the Km (in assay [1]; in the assay on Aspergillus nidulans [2]) were 13 µM and 122 µM, respectively. In addition, the k cat with Aspergillus nidulans [3] was 313 s⁻¹; in assay [4] it was 2.6 s⁻¹.
As to `O=C1CC(O)(C(=O)O)C(F)C(O)C1O` (stereo in doubt; 2), the values for the Km (in assay [1]; in the assay on Aspergillus nidulans [2]) were 3.6 µM and 39 µM, respectively. Moreover, the k cat in the assay on Aspergillus nidulans [3] amounted to 4.6 s⁻¹; in assay [4], 0.14 s⁻¹; in assay [6], 3 s⁻¹. Moreover, the k cat/Km in assay [5] is 310000 M⁻¹ s⁻¹.
In the case of `O=C1CC(O)(C(=O)O)C(F)C(O)C1O` (stereo in doubt; 3), the figures for the Km (in assay [1]; in the assay on Aspergillus nidulans [2]) were 7.9 µM and 50 µM, respectively. The k cat in the assay with Aspergillus nidulans [3] turned out to be 46 s⁻¹; in assay [4], 1.1 s⁻¹; in assay [6], 36 s⁻¹. The same compound registered a k cat/Km in assay [5] of 310000 M⁻¹ s⁻¹.
